Results from ChEMBL document CHEMBL3885881, “DrugMatrix”.

Organism: Rattus norvegicus
Assay: DrugMatrix - Regimen: Daily Repeat
Type: toxicity, organism-based, Sprague-Dawley
Set-up: regimen Daily Repeat, gender Male, age 6-8 weeks
Conditions: in vivo, po, route oral GAVAGE, vehicle .5 % CMC; for ABSOLUTE BASOPHIL / ABSOLUTE EOSINOPHIL / ABSOLUTE LYMPHOCYTE / ABSOLUTE SEGMENTED NEUTROPHIL / BASOPHIL / EOSINOPHIL / ERYTHROCYTE COUNT / HEMATOCRIT / LYMPHOCYTE / MEAN CORPUSCULAR HEMOGLOBIN / MEAN CORPUSCULAR HEMOGLOBIN CONCENTRATION / MEAN CORPUSCULAR VOLUME / MONOCYTE / NEUTROPHIL / NUCLEATED RED BLOOD CELLS / PLATELET COUNT / LEUKOCYTE COUNT: tissue Blood; for ALANINE AMINOTRANSFERASE / ALBUMIN / ALKALINE PHOSPHATASE / ASPARTATE AMINOTRANSFERASE / BLOOD UREA NITROGEN / CARBON DIOXIDE / CHLORIDE / CHOLESTEROL / CREATINE PHOSPHOKINASE / CREATININE / GLUCOSE / LACTATE DEHYDROGENASE / PHOSPHORUS / POTASSIUM / SODIUM / TOTAL BILIRUBIN / TOTAL PROTEIN / URIC ACID: tissue Plasma
[1] = 0 mg/kg, 72 h, dose level Control, time 3 day
[2] = 0 mg/kg, 120 h, dose level Control, time 5 day
[3] = 3 mg/kg, 72 h, dose level Low, time 3 day
[4] = 3 mg/kg, 120 h, dose level Low, time 5 day

Compound: CCN(CC)CCOc1ccc(/C(=C(/Cl)c2ccccc2)c2ccccc2)cc1 [ENCLOMIPHENE]
- ABSOLUTE BASOPHIL [1]: 0 CELLS/uL
- ABSOLUTE EOSINOPHIL [1]: 222.83 CELLS/uL
- ABSOLUTE LYMPHOCYTE [1]: 14453 CELLS/uL
- ABSOLUTE SEGMENTED NEUTROPHIL [1]: 1490.83 CELLS/uL
- BASOPHIL [1]: 0%
- EOSINOPHIL [1]: 1.33%
- ERYTHROCYTE COUNT [1]: 5.76 x10E6/uL
- HEMATOCRIT [1]: 36.52%
- LYMPHOCYTE [1]: 89.33%
- MEAN CORPUSCULAR HEMOGLOBIN [1]: 23.37 pg
- MEAN CORPUSCULAR HEMOGLOBIN CONCENTRATION [1]: 36.85 G/DL
- MEAN CORPUSCULAR VOLUME [1]: 63.47 fL
- MONOCYTE [1]: 0%
- NEUTROPHIL [1]: 9.33%
- NUCLEATED RED BLOOD CELLS [1]: 0 /100WBC
- PLATELET COUNT [1]: 1239.5 x10E3/uL
- ALANINE AMINOTRANSFERASE [1]: 43.83 u/L
- ALBUMIN [1]: 4.27 G/DL
- ALKALINE PHOSPHATASE [1]: 398.83 u/L
- ASPARTATE AMINOTRANSFERASE [1]: 81.17 u/L
- BLOOD UREA NITROGEN [1]: 17.67 mg/dL
- CARBON DIOXIDE [1]: 27.5 mmol/L
- CHLORIDE [1]: 99.17 MEQ/L
- CHOLESTEROL [1]: 74 mg/dL
- CREATINE PHOSPHOKINASE [1]: 331.5 u/L
- CREATININE [1]: 0.2 mg/dL
- GLUCOSE [1]: 171.33 mg/dL
- LACTATE DEHYDROGENASE [1]: 241.67 u/L
- PHOSPHORUS [1]: 12.25 mg/dL
- POTASSIUM [1]: 6.33 MEQ/L
- SODIUM [1]: 141.28 MEQ/L
- TOTAL BILIRUBIN [1]: 0.15 mg/dL
- TOTAL PROTEIN [1]: 5.98 G/DL
- URIC ACID [1]: 1.63 mg/dL
- ABSOLUTE BASOPHIL [2]: 0 CELLS/uL
- ABSOLUTE EOSINOPHIL [2]: 148.67 CELLS/uL
- ABSOLUTE LYMPHOCYTE [2]: 16020.5 CELLS/uL
- ABSOLUTE SEGMENTED NEUTROPHIL [2]: 1468.33 CELLS/uL
- BASOPHIL [2]: 0%
- EOSINOPHIL [2]: 1%
- ERYTHROCYTE COUNT [2]: 5.78 x10E6/uL
- HEMATOCRIT [2]: 35.77%
- LEUKOCYTE COUNT [2]: 17.67 x10E3/uL
- LYMPHOCYTE [2]: 90.5%
- MEAN CORPUSCULAR HEMOGLOBIN [2]: 23.22 pg
- MEAN CORPUSCULAR HEMOGLOBIN CONCENTRATION [2]: 37.47 G/DL
- MEAN CORPUSCULAR VOLUME [2]: 61.92 fL
- MONOCYTE [2]: 0.17%
- NEUTROPHIL [2]: 8.33%
- NUCLEATED RED BLOOD CELLS [2]: 0.17 /100WBC
- PLATELET COUNT [2]: 1255.5 x10E3/uL
- ALANINE AMINOTRANSFERASE [2]: 46.5 u/L
- ALBUMIN [2]: 4.38 G/DL
- ALKALINE PHOSPHATASE [2]: 336 u/L
- ASPARTATE AMINOTRANSFERASE [2]: 76.5 u/L
- BLOOD UREA NITROGEN [2]: 20 mg/dL
- CARBON DIOXIDE [2]: 27.5 mmol/L
- CHLORIDE [2]: 101 MEQ/L
- CHOLESTEROL [2]: 71.33 mg/dL
- CREATINE PHOSPHOKINASE [2]: 231.83 u/L
- CREATININE [2]: 0.37 mg/dL
- GLUCOSE [2]: 168.83 mg/dL
- LACTATE DEHYDROGENASE [2]: 174 u/L
- PHOSPHORUS [2]: 11.48 mg/dL
- POTASSIUM [2]: 6.82 MEQ/L
- SODIUM [2]: 143.8 MEQ/L
- TOTAL BILIRUBIN [2]: 0.2 mg/dL
- TOTAL PROTEIN [2]: 5.98 G/DL
- URIC ACID [2]: 1.83 mg/dL
- ABSOLUTE BASOPHIL [3]: 0 CELLS/uL
- ABSOLUTE EOSINOPHIL [3]: 54.33 CELLS/uL
- ABSOLUTE LYMPHOCYTE [3]: 13020.67 CELLS/uL
- ABSOLUTE SEGMENTED NEUTROPHIL [3]: 996.33 CELLS/uL
- BASOPHIL [3]: 0%
- EOSINOPHIL [3]: 0.33%
- ERYTHROCYTE COUNT [3]: 5.87 x10E6/uL
- HEMATOCRIT [3]: 35.93%
- LEUKOCYTE COUNT [3]: 14.23 x10E3/uL
- LYMPHOCYTE [3]: 91.67%
- MEAN CORPUSCULAR HEMOGLOBIN [3]: 24.23 pg
- MEAN CORPUSCULAR HEMOGLOBIN CONCENTRATION [3]: 39.57 G/DL
- MEAN CORPUSCULAR VOLUME [3]: 61.2 fL
- MONOCYTE [3]: 1%
- NEUTROPHIL [3]: 7%
- NUCLEATED RED BLOOD CELLS [3]: 0 /100WBC
- PLATELET COUNT [3]: 1129 x10E3/uL
- ALANINE AMINOTRANSFERASE [3]: 57.33 u/L
- ALBUMIN [3]: 4.5 G/DL
- ALKALINE PHOSPHATASE [3]: 614.33 u/L
- ASPARTATE AMINOTRANSFERASE [3]: 88 u/L
- BLOOD UREA NITROGEN [3]: 13.67 mg/dL
- CARBON DIOXIDE [3]: 25.33 mmol/L
- CHLORIDE [3]: 105.67 MEQ/L
- CHOLESTEROL [3]: 37 mg/dL
- CREATINE PHOSPHOKINASE [3]: 178 u/L
- CREATININE [3]: 0.16 mg/dL
- GLUCOSE [3]: 148 mg/dL
- LACTATE DEHYDROGENASE [3]: 196.67 u/L
- PHOSPHORUS [3]: 13.37 mg/dL
- POTASSIUM [3]: 6.75 MEQ/L
- SODIUM [3]: 151.6 MEQ/L
- TOTAL BILIRUBIN [3]: 0.2 mg/dL
- TOTAL PROTEIN [3]: 6.17 G/DL
- URIC ACID [3]: 1.43 mg/dL
- ABSOLUTE BASOPHIL [4]: 0 CELLS/uL
- ABSOLUTE EOSINOPHIL [4]: 38.33 CELLS/uL
- ABSOLUTE LYMPHOCYTE [4]: 13151.33 CELLS/uL
- ABSOLUTE SEGMENTED NEUTROPHIL [4]: 736.67 CELLS/uL
- BASOPHIL [4]: 0%
- EOSINOPHIL [4]: 0.33%
- ERYTHROCYTE COUNT [4]: 6.2 x10E6/uL
- HEMATOCRIT [4]: 39.87%
- LEUKOCYTE COUNT [4]: 14.1 x10E3/uL
- LYMPHOCYTE [4]: 93.33%
- MEAN CORPUSCULAR HEMOGLOBIN [4]: 24.13 pg
- MEAN CORPUSCULAR HEMOGLOBIN CONCENTRATION [4]: 37.57 G/DL
- MEAN CORPUSCULAR VOLUME [4]: 64.33 fL
- MONOCYTE [4]: 1%
- NEUTROPHIL [4]: 5.33%
- NUCLEATED RED BLOOD CELLS [4]: 0 /100WBC
- PLATELET COUNT [4]: 1362.67 x10E3/uL
- ALANINE AMINOTRANSFERASE [4]: 51.67 u/L
